Assay results taken from PubChem BioAssay AID1352 (Sanford-Burnham Center for Chemical Genomics, 2008).
Calls of active or inactive are those of the source.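 Rule for the calls: active = compound at 25 µM lifting cell survival 30% over the thapsigargin-only control at any thapsigargin dose; inactive = the rest.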

Test system: differentiated PC12, thapsigargin-induced death, ATPlite luminescence, 24 h
Assay: ER stress death protection in PC12 neurons – cell-based, differentiated PC12, rat pheochromocytoma, ATP luminescence, SAR follow-up (AID 1352)
Settings: at 25 µM, stronger effect = higher value; for survival: measured here: survival

Row | SMILES | survival vs thapsigargin 6.25 uM | survival (thapsigargin 0.25 uM) [%] | survival (thapsigargin 1.25 uM) [%]
1 | COc1ccc(C2CC(=O)C3=C(C2)Nc2ccccc2NC3c2cccc(C(F)(F)F)c2)cc1OC (stereo not drawn) | 78% | 44 | 48
2 | CC1(C)CC(=O)C2=C(C1)Nc1ccccc1NC2c1ccc(-c2ccccc2)cc1 (stereo not drawn) | 81% | 76 | 41
3 | CCOc1cccc(C2Nc3ccccc3NC3=C2C(=O)CC(c2ccc(OC)cc2)C3)c1 (stereo not drawn) | 32% (inactive) | 26 | 19
4 | COc1ccc(C2CC(=O)C3=C(C2)Nc2ccccc2NC3c2cccc(Br)c2)cc1OC (stereo not drawn) | 54% | 54 | 37
5 | CSc1ccc(C2Nc3ccccc3NC3=C2C(=O)CC(c2ccccc2)C3)cc1 (stereo not drawn) | 30% (inactive) | 22 | 17
6 | CCOc1cc(C2Nc3ccccc3NC3=C2C(=O)CC(c2ccc(OC)cc2)C3)cc(Cl)c1O (stereo not drawn) | 44% | 59 | 38
7 | CCCOc1ccc(C2Nc3ccccc3NC3=C2C(=O)CC(c2ccc(OC)c(OC)c2)C3)cc1 (stereo not drawn) | 33% (inactive) | 32 | 22
8 | COc1ccc(C2CC(=O)C3=C(C2)Nc2ccccc2NC3c2cc(C)ccc2C)cc1 (stereo not drawn) | 38% | 51 | 29
9 | COc1ccc(C2CC(=O)C3=C(C2)Nc2ccccc2NC3c2ccccc2C(F)(F)F)cc1OC (stereo not drawn) | 34% (inactive) | 30 | 25
10 | O=C1CC(c2ccccc2)CC2=C1C(c1c(F)cccc1Cl)Nc1ccccc1N2 (stereo not drawn) | 39% (inactive) | 38 | 19
11 | COc1ccc(C2CC(=O)C3=C(C2)Nc2ccccc2NC3c2cccc(Oc3ccccc3)c2)cc1OC (stereo not drawn) | 25% (inactive) | 21 | 16
